The compound `CC1(C)OC(=O)Nc2ccc(-c3ccc(C#N)[nH]3)cc21` [Example 1, 5-(4,4-Dimethyl-2-oxo-1,4-dihydro-2H-benzo[d][1,3]oxazin-6-yl)-1H-pyrrole-2-carbonitrile] displayed a melting point of 241 to 242 °C. Regarding `CC1(C)C(=O)Nc2ccc(C3(C#N)C=CC=N3)cc21` (stereo not drawn) [Example 3, 2-(3,3-Dimethyl-2-oxo-2,3-dihydro-1H-indol-5-yl)-2-cyanopyrrole], the melting point was in the range of 255.9 to 257.9 °C. In the case of `CCn1c(C#N)ccc1-c1ccc2c(c1)C(C)(C)OC(=O)N2` [Example 6, 5-(4,4-Dimethyl-2-oxo-1,4-dihydro-2H-3,1-benzoxazin-6-yl)-1-ethyl-1H-pyrrole-2-carbonitrile], the melting point is 200 to 202 °C. In the case of `C#CCn1c(C#N)ccc1-c1ccc2c(c1)C(C)(C)OC(=O)N2` [Example 7, 5-(4,4-dimethyl-2-oxo-1,4-Dihydro-2H-3,1-benzoxazin-6-yl)-1-prop-2-ynyl-1H-pyrrole-2-carbonitrile] it was 222 to 224 °C; in that of `CC(C)(C)OC(=O)Cn1c(C#N)ccc1-c1ccc2c(c1)C(C)(C)OC(=O)N2` [Example 8, tert-butyl[2-cyano-5-(4,4-dimethyl-2-oxo-1,4-dihydro-2H-3,1-benzoxazin-6-yl)-1H-pyrrol-1-yl]acetate], 188 to 190 °C. For the compound `CC1(C)OC(=O)Nc2ccc(-c3ccc(C#N)n3CC(=O)O)cc21` [Example 9, [2-Cyano-5-(4,4-dimethyl-2-oxo-1,4-dihydro-2H-3,1-benzoxazin-6-yl)-1H-pyrrol-1yl]acetic acid], the melting point was 207 to 209 °C. In the case of `CCOc1cc(CCNC(=O)Cn2c(C#N)ccc2-c2ccc3c(c2)C(C)(C)OC(=O)N3)ccc1OC` [Example 10, 2-[2-cyano-5-(4,4-dimethyl-2-oxo-1,4-dihydro-2H-3,1-benzoxazin-6-yl)-1H-pyrrol-1-yl]-N-[2-(3-ethoxy-4-methoxyphenyl)ethyl]acetamide] it was 160 to 162 °C.

With `CCCCCn1c(C#N)ccc1-c1ccc2c(c1)C(C)(C)OC(=O)N2` [Example 11, 5-(4,4-Dimethyl-2-oxo-1,4-dihydro-2H-3,1-benzoxazine-6-yl)-1-pentyl-1H-pyrrole-2-carbonitrile], the melting point lay in the range of 128 to 131 °C. For the compound `CN1C(=O)OC(C)(C)c2cc(-c3ccc(C#N)[nH]3)ccc21` [Example 12, 5-(1,4,4-trimethyl-2-oxo-1,4-dihydro-2H-3,1-benzoxazin-6-yl)-1H-pyrrole-2-carbonitril], the melting point was 256 to 257 °C (dec.).

A word on the melting point: it is the temperature of the solid-liquid transition.

Source of the values: patent publication US7846924B2, “Cyanopyrroles” (Wyeth LLC, priority 1999, dated 2010).
